# Patent US9969744B2, “Compounds for use in cognition improvement” (FUNDACIÓN PARA LA INVESTIGACIÓN MÉDICA APLICADA, priority 2014, dated 2018)
# Marks after values point to notes of the source that are not given here.
# Columns and labels:
# AcH3 = assay: In-vivo AcH3 in hippocampus of wild type mice; conditions: 1 h after single dose 40 mg/kg i.p.
# Method: Another group of animals received the vehicle (1/1/8, v:v:v, DMSO/Tween 20/saline). One hour later, mice were sacrificed by cervical dislocation and their hippocampus was quickly dissected from the brains. Total tissue homogenates were obtained by homogenizing the hippocampus in a cold lysis buffer with protease inhibitors (0.2 M NaCl, 0.1 M HEPES, 10% glycerol, 200 mM NaF, 2 mM Na4P2O7, 5 mM EDTA, 1 mM EGTA, 2 mM DTT, 0.5 mM PMSF, 1 mM Na3VO4 and Complete Protease Inhibitor Cocktail, Roche Diagnostics). The homogenate was then centrifuged at 14,000×g at 4° C. for 20 min and the supernatant aliquoted and stored at −80° C. Total protein concentrations were determined using the BioRad Bradford protein assay (BioRad Laboratories). Protein samples were analyzed as described in the “in vitro” section.
# aged-Tg2576 mice [1] = assay: Memory function in aged-Tg2576 mice: Fear Conditioning (FC); format: in vivo; conditions: Tg2576 mice (16-18 month), chronic treatment 3-5 weeks, 20 mg/Kg i.p.; standard error in brackets
# Method: (§1) The effect on memory function of compounds of the invention was studied in Tg2576 mice (16-18 month) after a chronic treatment of 3-5 weeks by using two different behavioral tasks: the Fear Conditioning (FC) and the Morris water maze (MWM) test, Table 5 (below)
# The behavioural procedure of FC task involved three phases: habituation, training and testing. During habituation phase, mice were habituated to the conditioning box (context) for 5 min with no stimuli presented. 24 hours later (training phase), mice were placed in the training chamber and allowed to explore for 2 min, afterward, a footshock (0.3 mA) unconditioned stimulus was administered (2 s) and 30 s after mice were returned to their home cage. Mice were returned to the conditioning chamber 24 h after training and allowed to explore the context for 2 min, during which freezing behavior was recorded (contextual long term memory). Freezing scores were expressed as percentages. The conditioning procedure was carried out in a StartFear system (Panlab S.L., Barcelona, Spain) that allows recording and analysis of the signal generated by the animal movement through a high sensitivity Weight Transducer system. The analogical signal is transmitted to the FREEZING and STARTLE software modulated through the load cell unit for recording purposes and posterior analysis in terms of activity/immobility.
# aged-Tg2576 mice [2] = assay: Memory function in aged-Tg2576 mice: Morris water maze (MWM); format: in vivo; conditions: Tg2576 mice (16-18 month), chronic treatment 3-5 weeks, 20 mg/Kg i.p.; retention phase, day 4th; standard error in brackets
# Source text: as §1
# The MWM test was used to evaluate spatial memory. After treatments, groups of animals underwent spatial reference learning and memory testing in the MWM. The water maze was a circular pool (diameter 1.2 m) filled with water maintained at 20° C. and made opaque by the addition of non-toxic white paint. Mice were trained for three consecutive days (8 trials/day) swimming to a raised platform (visible-platform). No distal visible cues were present during this phase. […] In the probe trials the platform was removed from the pool, and the percentage of time spent in the quadrant where the platform was previously set was recorded. All trials were monitored by a camera above the center of the pool connected to a SMART-LD program (Panlab S.L., Barcelona, Spain) for subsequent analysis of escape latencies, swimming speed, path length and percent time spent in each quadrant of the pool during probe trials. […]
smiles,measurement,setting,value
"CCCc1nn(C)c2c(=O)[nH]c(-c3cc(Cc4ccc(C(=O)Nc5ccccc5N)cc4)ccc3OCC)nc12 [Example 1-11, N-(2-aminophenyl)-4-[[4-ethoxy-3-(1-methyl-7-oxo-3-propyl-6H-pyrazolo[4,3-d]pyrimidin-5-yl)phenyl]methyl]benzamide]",AcH3 increment vs basal,AcH3,++ (basal x1≤(++)<basal x2)
same,FC (% freezing),aged-Tg2576 mice [1],59.65 (9.2)^c %
same,MWM (% of time on right quadrant),aged-Tg2576 mice [2],33.83 (2.24)^c %
